Experiments:
NCI-H23 [1] = assay: Growth inhibition of human NCI-H23 cells assessed as cell growth at 0.1 uM incubated for 48 hrs by sulforhodamine B assay relative to control; format: functional; settings: NCI-H23, 48 h, read-out: Activity
A498 = assay: Growth inhibition of human A498 cells assessed as cell growth at 100 uM incubated for 48 hrs by sulforhodamine B assay relative to control; format: functional; settings: A498, 48 h, read-out: Activity
SNB-75 = assay: Growth inhibition of human SNB75 cells assessed as cell growth at 0.01 uM incubated for 48 hrs by sulforhodamine B assay relative to control; format: functional; settings: SNB-75, 48 h, read-out: Activity
RPMI-8226 = assay: Growth inhibition of human RPMI8226 cells assessed as cell growth at 100 uM incubated for 48 hrs by sulforhodamine B assay relative to control; format: functional; settings: RPMI-8226, 48 h, read-out: Activity
SF-268 = assay: Growth inhibition of human SF268 cells incubated for 48 hrs by sulforhodamine B assay; format: functional, cell-based; settings: SF-268, 48 h
SR = assay: Growth inhibition of human SR cells assessed as cell growth at 100 uM incubated for 48 hrs by sulforhodamine B assay relative to control; format: functional; settings: read-out: Activity
CAKI-1 = assay: Growth inhibition of human Caki1 cells incubated for 48 hrs by sulforhodamine B assay; format: functional, cell-based; settings: CAKI-1, 48 h
DU-145 = assay: Growth inhibition of human DU145 cells incubated for 48 hrs by sulforhodamine B assay; format: functional, cell-based; settings: DU-145, 48 h
RXF 393 = assay: Growth inhibition of human RXF393 cells assessed as cell growth at 1 uM incubated for 48 hrs by sulforhodamine B assay relative to control; format: functional; settings: RXF 393, 48 h, read-out: Activity
PC-3 = assay: Growth inhibition of human PC3 cells assessed as cell growth at 100 uM incubated for 48 hrs by sulforhodamine B assay relative to control; format: functional; settings: PC-3, 48 h, read-out: Activity
SK-MEL-5 = assay: Growth inhibition of human SK-MEL-5 cells assessed as cell growth at 0.01 uM incubated for 48 hrs by sulforhodamine B assay relative to control; format: functional; settings: SK-MEL-5, 48 h, read-out: Activity
OVCAR-8 = assay: Growth inhibition of human OVCAR8 cells assessed as cell growth at 0.1 uM incubated for 48 hrs by sulforhodamine B assay relative to control; format: functional; settings: OVCAR-8, 48 h, read-out: Activity
OVCAR-4 = assay: Growth inhibition of human OVCAR4 cells assessed as cell growth at 1 uM incubated for 48 hrs by sulforhodamine B assay relative to control; format: functional; settings: OVCAR-4, 48 h, read-out: Activity
MDA-MB-468 = assay: Growth inhibition of human MDA-MB-468 cells assessed as cell growth at 0.01 uM incubated for 48 hrs by sulforhodamine B assay relative to control; format: functional; settings: MDA-MB-468, 48 h, read-out: Activity
SNB-19 = assay: Growth inhibition of human SNB19 cells assessed as cell growth at 1 uM incubated for 48 hrs by sulforhodamine B assay relative to control; format: functional; settings: SNB-19, 48 h, read-out: Activity
KM12 [2] = assay: Growth inhibition of human KM12 cells incubated for 48 hrs by sulforhodamine B assay; format: functional, cell-based; settings: KM12, 48 h
UACC-62 [3] = assay: Growth inhibition of human UACC62 cells incubated for 48 hrs by sulforhodamine B assay; format: functional, cell-based; settings: UACC-62, 48 h
SK-MEL-28 = assay: Growth inhibition of human SK-MEL-28 cells assessed as cell growth at 0.1 uM incubated for 48 hrs by sulforhodamine B assay relative to control; format: functional; settings: SK-MEL-28, 48 h, read-out: Activity
ACHN = assay: Growth inhibition of human ACHN cells incubated for 48 hrs by sulforhodamine B assay; format: functional, cell-based
NCI-H226 [4] = assay: Growth inhibition of human NCI-H226 cells incubated for 48 hrs by sulforhodamine B assay; format: functional, cell-based; settings: NCI-H226, 48 h
HCT-116 = assay: Growth inhibition of human HCT116 cells incubated for 48 hrs by sulforhodamine B assay; format: functional, cell-based; settings: HCT-116, 48 h
NCI-H226 [5] = assay: Growth inhibition of human NCI-H226 cells assessed as cell growth at 0.1 uM incubated for 48 hrs by sulforhodamine B assay relative to control; format: functional; settings: NCI-H226, 48 h, read-out: Activity
UACC-62 [6] = assay: Growth inhibition of human UACC62 cells assessed as cell growth at 100 uM incubated for 48 hrs by sulforhodamine B assay relative to control; format: functional; settings: UACC-62, 48 h, read-out: Activity
UACC-62 [7] = assay: Growth inhibition of human UACC62 cells assessed as cell growth at 1 uM incubated for 48 hrs by sulforhodamine B assay relative to control; format: functional; settings: UACC-62, 48 h, read-out: Activity
U-251 = assay: Growth inhibition of human U251 cells assessed as cell growth at 0.1 uM incubated for 48 hrs by sulforhodamine B assay relative to control; format: functional; settings: U-251, 48 h, read-out: Activity
SN12C = assay: Growth inhibition of human SN12C cells assessed as cell growth at 1 uM incubated for 48 hrs by sulforhodamine B assay relative to control; format: functional; settings: read-out: Activity
KM12 [8] = assay: Growth inhibition of human KM12 cells assessed as cell growth at 100 uM incubated for 48 hrs by sulforhodamine B assay relative to control; format: functional; settings: KM12, 48 h, read-out: Activity
NCI-H23 [9] = assay: Growth inhibition of human NCI-H23 cells assessed as cell growth at 0.01 uM incubated for 48 hrs by sulforhodamine B assay relative to control; format: functional; settings: NCI-H23, 48 h, read-out: Activity
[10] = read-out: LC50 (the source's name)
[11] = read-out: pLC50 (the source's name) (converted)

## O=C(Nc1cccc(-n2cc(-c3ccncc3)c(-c3cc(O)cc(Cl)c3)n2)c1)Nc1ccc(Cl)c(Cl)c1
NCI-H23 [1]
  growth at 0.1 µM: 97%
A498
  growth at 100 µM: -79%
SNB-75
  growth at 0.01 µM: 94%
RPMI-8226
  growth at 100 µM: -27%
SF-268; read-out: GI50
  GI50: 3.22 µM
SF-268; [10]
  CC50: > 100 µM
SF-268; read-out: TGI
  TGI: 32.6 µM
SF-268; read-out: pGI50 (converted)
  GI50: 3.24 µM
SF-268; [11]
  CC50: > 100 µM
SF-268; read-out: pTGI (converted)
  TGI: 33.1 µM
SR
  growth at 100 µM: -30%
CAKI-1; read-out: GI50
  GI50: 2.21 µM
CAKI-1; [10]
  CC50: > 100 µM
CAKI-1; read-out: TGI
  TGI: 70.1 µM
CAKI-1; read-out: pGI50 (converted)
  GI50: 2.19 µM
CAKI-1; [11]
  CC50: > 100 µM
CAKI-1; read-out: pTGI (converted)
  TGI: 7.08 µM
DU-145; read-out: GI50
  GI50: 2.5 µM
DU-145; [10]
  CC50: > 100 µM
DU-145; read-out: TGI
  TGI: 10.1 µM
DU-145; read-out: pGI50 (converted)
  GI50: 2.82 µM
DU-145; [11]
  CC50: > 100 µM
DU-145; read-out: pTGI (converted)
  TGI: 10.2 µM
RXF 393
  growth at 1 µM: 38%
PC-3
  growth at 100 µM: -35%
SK-MEL-5
  growth at 0.01 µM: 95%
OVCAR-8
  growth at 0.1 µM: 97%
OVCAR-4
  growth at 1 µM: 100%
MDA-MB-468
  growth at 0.01 µM: 92%
SNB-19
  growth at 1 µM: 90%
KM12 [2]; read-out: GI50
  GI50: 1.5 µM
KM12 [2]; [10]
  CC50: 9 µM
KM12 [2]; read-out: TGI
  TGI: 36.9 µM
KM12 [2]; read-out: pGI50 (converted)
  GI50: 1.51 µM
KM12 [2]; [11]
  CC50: 9.12 µM
KM12 [2]; read-out: pTGI (converted)
  TGI: 3.72 µM
UACC-62 [3]
  IC50: 1.69 µM
UACC-62 [3]; read-out: GI50
  GI50: 1.59 µM
UACC-62 [3]; [10]
  CC50: 5.38 µM
UACC-62 [3]; read-out: TGI
  TGI: 37.6 µM
UACC-62 [3]; read-out: pGI50 (converted)
  GI50: 1.7 µM
UACC-62 [3]; [11]
  CC50: 8.32 µM
UACC-62 [3]; read-out: pTGI (converted)
  TGI: 3.72 µM
SK-MEL-28
  growth at 0.1 µM: 97%
ACHN; read-out: GI50
  GI50: 2.21 µM
ACHN; [10]
  CC50: > 100 µM
ACHN; read-out: TGI
  TGI: 67.1 µM
ACHN; read-out: pGI50 (converted)
  GI50: 2.19 µM
ACHN; [11]
  CC50: > 100 µM
ACHN; read-out: pTGI (converted)
  TGI: 8.91 µM
NCI-H226 [4]; read-out: GI50
  GI50: 2.28 µM
NCI-H226 [4]; read-out: LC50
  LC50: > 100 µM
NCI-H226 [4]; read-out: TGI
  TGI: 71.6 µM
NCI-H226 [4]; read-out: pGI50 (converted)
  GI50: 2.29 µM
NCI-H226 [4]; read-out: pLC50 (converted)
  LC50: > 100 µM
NCI-H226 [4]; read-out: pTGI (converted)
  TGI: 7.08 µM
HCT-116
  IC50: 1.74 µM
HCT-116; read-out: GI50
  GI50: 1.74 µM
HCT-116; [10]
  CC50: 9.59 µM
HCT-116; read-out: TGI
  TGI: 41 µM
HCT-116; read-out: pGI50 (converted)
  GI50: 1.74 µM
HCT-116; [11]
  CC50: 9.77 µM
HCT-116; read-out: pTGI (converted)
  TGI: 4.07 µM
NCI-H226 [5]
  growth at 0.1 µM: 89%
UACC-62 [6]
  growth at 100 µM: -74%
UACC-62 [7]
  growth at 1 µM: 83%
U-251
  growth at 0.1 µM: 93%
SN12C
  growth at 1 µM: 58%
KM12 [8]
  growth at 100 µM: -63%
NCI-H23 [9]
  growth at 0.01 µM: 96%
